Measurements published in article PMC11259535 (ACS chemical biology, 2024).

T1: succinyl-CoA:glutarate-CoA transferase (SUGCT) (Homo sapiens, UniProt Q9HAC7, Q255A/K256A)
T1 sequence (Q9HAC7 31-438 Q255A/K256A): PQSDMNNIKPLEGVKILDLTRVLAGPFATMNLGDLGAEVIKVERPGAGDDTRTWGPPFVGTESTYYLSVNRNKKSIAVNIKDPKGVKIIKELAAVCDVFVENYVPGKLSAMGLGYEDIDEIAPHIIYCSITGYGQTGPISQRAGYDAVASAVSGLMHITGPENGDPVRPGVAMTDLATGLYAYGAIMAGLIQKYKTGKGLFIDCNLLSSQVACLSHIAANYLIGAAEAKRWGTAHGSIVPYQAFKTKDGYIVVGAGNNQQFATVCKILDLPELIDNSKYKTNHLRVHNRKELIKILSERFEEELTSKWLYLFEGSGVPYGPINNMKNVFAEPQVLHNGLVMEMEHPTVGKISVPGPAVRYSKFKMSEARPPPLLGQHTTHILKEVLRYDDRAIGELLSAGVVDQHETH


Columns and labels:
[1] = target: T1, succinyl-CoA:glutarate-CoA transferase (SUGCT); experiment: co-crystal structure; type: binding
[2] = substrate: CC(C)(COP(=O)(O)OP(=O)(O)OC[C@H]1O[C@@H](n2cnc3c(N)ncnc32)[C@H](O)[C@@H]1OP(=O)(O)O)[C@@H](O)C(=O)NCCC(=O)NCCSC(=O)CCCC(=O)O; experiment: saturation kinetics; type: biochemical, Homo sapiens

| Molecule | co-crystal structure [1] | Km [2] [µM] |
| --- | --- | --- |
| CCCCc1nc(Cl)c(C(=O)O)n1Cc1ccc(-c2ccccc2-c2nn[nH]n2)cc1 [losartan carboxylic acid] | There was unambiguous density for losartan carboxylic acid in one of the four active sites |  |
| succinyl-CoA:glutarate-CoA transferase (SUGCT) (Homo sapiens) (protein) PQSDMNNIKPLEGVKILDLTRVLAGPFATMNLGDLGAEVIKVERPGAGDDTRTWGPPFVGTESTYYLSVNRNKKSIAVNIKDPKGVKIIKELAAVCDVFVENYVPGKLSAMGLGYEDIDEIAPHIIYCSITGYGQTGPISQRAGYDAVASAVSGLMHITGPENGDPVRPGVAMTDLATGLYAYGAIMAGLIQKYKTGKGLFIDCNLLSSQVACLSHIAANYLIGQKEAKRWGTAHGSIVPYQAFKTKDGYIVVGAGNNQQFATVCKILDLPELIDNSKYKTNHLRVHNRKELIKILSERFEEELTSKWLYLFEGSGVPYGPINNMKNVFAEPQVLHNGLVMEMEHPTVGKISVPGPAVRYSKFKMSEARPPPLLGQHTTHILKEVLRYDDRAIGELLSAGVVDQHETH |  | 17.3 |
